Test results from patent US11672786B2, “Methods of treating diseases associated with repeat instability” (The Hospital for Sick Children, priority 2016, dated 2023).

Key:
CAG-CAG = details: cited from earlier work
[1] = tested on: long (CAG)20 slip-outs from (CAG)50●(CTG)30; experiment: band-shift NA-DNA binding, long (CAG)20 slip-out; design: species or system human; details: NA 0.15-50 μM, 4% polyacrylamide gel
Source text: FIG. 2 are the results of experiments showing that NA binds to long CAG slip-outs. […] The (CAG)n DNA sequence (left) can fold into an hairpin structure involving mismatched A-A pair flanking C-G base pairs (middle). NA molecules can intercalate into the DNA helix, with the 2-amino-1,8-naphthyridine moiety (in red) hydrogen bonding to guanine and 8-azaquinolone moiety (in blue) hydrogen bonding to adenine. […] Long slip-outs extruded as a single slip-out from a fully base-paired backbone of (CTG)n●(CAG)n, as described (Pearson et al., 2002, Nuc. Acids Res., 30:4534-47). DNAs were mixed with increasing concentrations of NA (0.15 μM, 0.75 μM, 7.5 μM and 50 μM) and resolved on 4% polyacrylamide gels. All lanes are from the same gel, and they were separated for clarity. NA-DNA complexes are shown by brackets, free DNA is indicated by arrowheads. […] The relative migration was measured for the linear and the three slip-outs substrates as the ratio of the migration distance of each NA-DNA complex to the migration distance of the free DNA. The migration distance was measured from the well to a consistent center point of each band. […]

mouse striatum = experiment: histological study of mouse striatum, H&E staining; format: in vivo; details: NA in saline injected into striatum
[2] = tested on: Slip-outs of 3, 5, 11 or 15 CAG repeats; experiment: band-shift NA binding to slip-outs of 3, 5, 11 or 15 CAG repeats; details: NA 15 μM and 50 μM
Experimental: Slip-outs of 3, 5, 11 or 15 CAG repeats extruded as a single slip-out from a fully base-paired backbone (see top panel, DNAs sequence and structure). One pmol of each substrate was mixed with increasing concentrations of NA (15 μM and 50 μM) and resolved on 4% polyacrylamide gels. All lanes are from the same gel, and they were separated for clarity. NA-DNA complexes are shown by brackets, free DNA is indicated by arrowheads. For the linear substrate, there is no NA binding (white arrowheads); at the higher concentration of NA, a small decrease of the short slip-outs DNAs (3 and 5 repeats) is observed (grey arrowheads), but it is not possible to define a clear shifted band; band-shift is evident for the (CAG)11 and (CAG)15 slip-out DNAs (black arrowheads). The relative mobility shift was measured (graph panel) as the ratio of the migration distance of each NA-DNA complex to the migration distance of the free DNA. The migration distance was measured from the well to a consistent centre point of each band. Histograms indicate the mean of three independent experiments and the corresponding standard deviation. P-values were calculated by Student's t test.

naphthyridine-azaquinolone
affinity of each NA molecule/CAG-CAG as Ka (CAG-CAG; estimated): 1.8e+06 M⁻¹
Kd (CAG-CAG; estimated, read-out: affinity of each NA molecule/CAG-CAG as Kd): 560 nM
ratio of NA molecules to 1 CAG-CAG (CAG-CAG; previously estimated binding stoichiometry): 2
NA binding (band-shift) [1]: extensively bound
brain morphology (mouse striatum): did not alter brain morphology
NA binding by slip-out length (relative mobility shift) [2]: significantly better for longer than shorter CAG slip-outs
